Experimental data reported in patent publication US9775871B2, “Herbal compositions and methods for treating hepatic disorders” (priority 2007, dated 2017).

Test system: primary cultures of rat hepatocytes
Test: Production of free radicals (DCFH-DA fluorescence) after t-BOOH exposure

O=c1c(O)c(-c2ccc(O)c(O)c2)oc2cc(O)cc(O)c12 [Quercetin, quercetin]
Free radicals (%) (5 μM, Table 1, ratio of t-BOOH positive control, positive control of the test): 51.5 ± 2.1% | Free radicals (%) (25 μM, Table 1, ratio of t-BOOH positive control, positive control of the test): 18.8 ± 1.2% | Free radicals (%) (25 μM, Table 2, ratio of t-BOOH control (100), median ± SE): 13.2 ± 5.6 %
